Source: patent US20230398130A1, “METHODS AND COMPOSITIONS FOR DIFFERENTIATING STEM CELLS” (Massachusetts Institute of Technology, priority 2020, published 2023)

Tests used:
[1] = test system: ISC-enriched organoids; assay: Primary screen, 384-well 2.5-D organoid differentiation (ENR+CD, 6 days): carbachol-induced lysozyme secretion (LYZ.S); assay type: cell-based, murine; details: ENR+CD, 6 days, FC vs plate median
Text: (§1) High-throughput screening.

[2] = test system: ISC-enriched organoids; assay: Primary screen, 384-well 2.5-D organoid differentiation (ENR+CD, 6 days): basal lysozyme secretion (LYZ.NS); assay type: cell-based, murine; details: for Dose.FC.LYZ.NS: ENR+CD, 6 days, FC vs plate median; for Z.LYZ.NS: standard z score of FC
Text: as §1

[3] = test system: ISC-enriched organoids; assay: Primary screen, 384-well 2.5-D organoid differentiation (ENR+CD, 6 days, Target Selective Inhibitor Library, vs whole-plate median): ATP (CellTiter-Glo 3D, CTG); details: for Dose.FC.CTG: ENR+CD, 6 days, FC vs plate median; for Z.CTG: standard z score of FC

SMILES	Dose.FC.LYZ.S ([1]; Dose 0.08 uM)	Dose.FC.LYZ.S ([1]; Dose 0.40 uM)	Dose.FC.LYZ.S ([1]; Dose 2.00 uM)	Dose.FC.LYZ.S ([1]; Dose 10.00 uM)	Dose.FC.LYZ.NS ([2]; Dose 0.08 uM)	Z.LYZ.NS ([2]; Dose 0.08 uM)	Dose.FC.LYZ.NS ([2]; Dose 0.40 uM)	Z.LYZ.NS ([2]; Dose 0.40 uM)	Dose.FC.LYZ.NS ([2]; Dose 2.00 uM)	Z.LYZ.NS ([2]; Dose 2.00 uM)	Dose.FC.LYZ.NS ([2]; Dose 10.00 uM)	Z.LYZ.NS ([2]; Dose 10.00 uM)	Dose.FC.CTG ([3]; Dose 0.08 uM)	Z.CTG ([3]; Dose 0.08 uM)	Dose.FC.CTG ([3]; Dose 0.40 uM)	Z.CTG ([3]; Dose 0.40 uM)	Dose.FC.CTG ([3]; Dose 2.00 uM)	Z.CTG ([3]; Dose 2.00 uM)	Dose.FC.CTG ([3]; Dose 10.00 uM)	Z.CTG ([3]; Dose 10.00 uM)
NC(=O)C1CCCc2c1[nH]c1ccc(Cl)cc21 (centres unmarked) [EX 527 (Selisistat)]	0.062 log 2 fold change	0.047 log 2 fold change	−0.051 log 2 fold change	−0.011 log 2 fold change	0.100 log 2 fold change	0.871	0.059 log 2 fold change	0.512	0.030 log 2 fold change	0.261	0.057 log 2 fold change	0.494	0.240 log 2 fold change	0.574	0.174 log 2 fold change	0.415	0.341 log 2 fold change	0.814	0.320 log 2 fold change	0.766
COc1cc2c(cc1Cc1cccc(Cl)c1F)c(=O)c(C(=O)O)cn2[C@H](CO)C(C)C [Elvitegravir (GS-9137, JTK-303)]	−0.010 log 2 fold change	0.092 log 2 fold change	−0.126 log 2 fold change	−0.135 log 2 fold change	−0.047 log 2 fold change	−0.412	−0.069 log 2 fold change	−0.598	−0.094 log 2 fold change	−0.821	−0.090 log 2 fold change	−0.782	−0.001 log 2 fold change	−0.001	−0.040 log 2 fold change	−0.095	−0.344 log 2 fold change	−0.823	−0.737 log 2 fold change	−1.760
OC[C@H]1O[C@@H](c2ccc(Cl)c(Cc3ccc(O[C@H]4CCOC4)cc3)c2)[C@H](O)[C@@H](O)[C@@H]1O [Empagliflozin (BI 10773)]	−0.051 log 2 fold change	−0.055 log 2 fold change	−0.103 log 2 fold change	−0.022 log 2 fold change	−0.006 log 2 fold change	−0.052	−0.034 log 2 fold change	−0.294	−0.009 log 2 fold change	−0.081	0.017 log 2 fold change	0.144	−0.296 log 2 fold change	−0.707	−0.075 log 2 fold change	−0.178	−0.192 log 2 fold change	−0.458	−0.134 log 2 fold change	−0.320
C[C@H](N[C@@H](CCc1ccccc1)C(=O)O)C(=O)N1CCC[C@H]1C(=O)O.O.O [Enalaprilat Dihydrate]	−0.001 log 2 fold change	0.111 log 2 fold change	−0.095 log 2 fold change	−0.281 log 2 fold change	0.003 log 2 fold change	0.027	−0.003 log 2 fold change	−0.030	−0.022 log 2 fold change	−0.195	−0.157 log 2 fold change	−1.364	−0.190 log 2 fold change	−0.454	−0.124 log 2 fold change	−0.296	−0.331 log 2 fold change	−0.791	−0.979 log 2 fold change	−2.338
CNC(=O)c1ccc(N2C(=S)N(c3ccc(C#N)c(C(F)(F)F)c3)C(=O)C2(C)C)cc1F [Enzalutamide (MDV3100)]	0.176 log 2 fold change	0.276 log 2 fold change	0.077 log 2 fold change	0.076 log 2 fold change	0.162 log 2 fold change	1.411	0.166 log 2 fold change	1.446	0.024 log 2 fold change	0.210	0.094 log 2 fold change	0.820	0.195 log 2 fold change	0.465	0.256 log 2 fold change	0.611	0.076 log 2 fold change	0.181	0.146 log 2 fold change	0.348
Cn1cc(C2=C(c3cn(C4CCN(Cc5ccccn5)CC4)c4ccccc34)C(=O)NC2=O)c2ccccc21 [Enzastaurin (LY317615)]	0.109 log 2 fold change	0.251 log 2 fold change	0.053 log 2 fold change	−0.226 log 2 fold change	0.085 log 2 fold change	0.744	0.131 log 2 fold change	1.143	0.053 log 2 fold change	0.458	−0.116 log 2 fold change	−1.012	0.236 log 2 fold change	0.565	0.475 log 2 fold change	1.135	0.251 log 2 fold change	0.600	−0.081 log 2 fold change	−0.194
CCOC(=O)c1cncn1[C@H](C)c1ccccc1 [Etomidate]	0.053 log 2 fold change	0.048 log 2 fold change	0.054 log 2 fold change	−0.008 log 2 fold change	−0.008 log 2 fold change	−0.065	0.037 log 2 fold change	0.318	0.015 log 2 fold change	0.131	−0.001 log 2 fold change	−0.010	0.084 log 2 fold change	0.201	0.006 log 2 fold change	0.014	0.163 log 2 fold change	0.389	0.039 log 2 fold change	0.094
